Values joined by “and” are separate entries in the source; they are usually repeats but may differ in a detail not shown here. Identical values can stand only once. “Also recorded” adds a separate entry of the source. Like-named read-outs stand apart in the source and are kept apart here.
Key:
hTRPML1∆NC-YFP [1] = molecular target: T1, hTRPML1∆NC-YFP (Homo sapiens, UniProt Q9GZU1); assay type: cell-based; conditions: for IC50: read-out: TRPML1 IC50, Fluo-4, 5 µM ML-SA1, Fig. 2a/4, Table S1
Description: (§1) To identify inhibitors of TRPML1 and TRPML3, the Spectrum Collection compound library (MS Discoveries; 2000 compounds) and additional 430 bioactive compounds were screened. To this end, fluorometric Ca^2+ influx assays were performed by using the calcium dye Fluo-4/AM (Invitrogen, Thermo Fisher Scientific, Waltham, MA, USA) and a custom-made fluorescence imaging plate reader built into a robotic liquid handling station (Freedom Evo 150, Tecan, Männedorf, Switzerland). […] Screening compounds dissolved in DMSO (10 mM) were prediluted in 150 mM NaCl, 20 mM HEPES, pH 7.4, to a concentration of 200 µM. For primary screens, HEK293 stably expressing plasma membrane-targeted TRPML1 or TRPML3 were trypsinized and resuspended in cell culture medium supplemented with 4 µM Fluo-4/AM. After incubation at 37 °C for 30 min, the cell suspension was briefly centrifuged resuspended in HBS, and dispensed into black pigmented, clear-bottom 384-well microwell plates (Greiner μClear, Frickenhausen, Germany). Plates were placed into the FLIPR and fluorescence signals (excitation 470 nm, emission 515 nm) were recorded with a Zyla 5.5 camera (Andor, Belfast, UK) and the μManager software like previously described. In a first video, compound libraries were successively added to the cells with the Tecan 96-tip multichannel arm to a final concentration of 20 µM to map unspecific effects like autofluorescence or toxicity. In a second step the agonist ML-SA1 was pipetted in each well and fluorescence signals were recorded for 10 min. Analyses were done by calculating fluorescence intensities for each well and background areas with ImageJ (National Institutes of Health, Bethesda, MD, USA). Finally, the background was subtracted and the fluorescence intensities were normalized to initial intensities (F/F0). Concentration response curves were generated by the same procedure but compounds were manually prediluted in 96-well plates containing HBS, now supplemented with 0.1% bovine serum albumin. Here data was fitted to a four-parameter Hill equation to obtain Imin, Imax, IC50), and the Hill coefficient n.

hTRPML1∆NC-YFP [2] = assay type: cell-based, human
Description: as §1

hTRPML2-YFP = molecular target: T2, hTRPML2-YFP (Homo sapiens, UniProt Q8IZK6); test: Fluo-4 Ca2+ influx assay, HEK293 stably expressing hTRPML2-YFP, activated with ML-SA1; assay type: cell-based
T2 construct: expressed in transfected cells
T2 sequence (Q8IZK6 1-566): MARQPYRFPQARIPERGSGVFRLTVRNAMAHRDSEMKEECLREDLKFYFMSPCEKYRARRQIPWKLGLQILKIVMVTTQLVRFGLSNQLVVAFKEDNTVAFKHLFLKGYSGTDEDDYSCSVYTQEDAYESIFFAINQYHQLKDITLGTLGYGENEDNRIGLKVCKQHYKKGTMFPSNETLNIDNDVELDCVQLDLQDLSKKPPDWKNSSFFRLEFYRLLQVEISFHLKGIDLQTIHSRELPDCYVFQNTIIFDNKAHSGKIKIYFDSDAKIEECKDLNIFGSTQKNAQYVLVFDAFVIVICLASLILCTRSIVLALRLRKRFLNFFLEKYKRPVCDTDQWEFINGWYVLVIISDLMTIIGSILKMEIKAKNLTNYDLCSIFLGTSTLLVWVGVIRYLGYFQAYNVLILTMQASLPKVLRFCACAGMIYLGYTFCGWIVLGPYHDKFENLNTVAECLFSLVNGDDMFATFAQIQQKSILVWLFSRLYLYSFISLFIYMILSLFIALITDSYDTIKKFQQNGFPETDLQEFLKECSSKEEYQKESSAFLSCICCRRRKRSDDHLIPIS

hTRPML3-YFP = molecular target: T3, hTRPML3-YFP (Homo sapiens, UniProt Q8TDD5); test: Fluo-4 Ca2+ influx assay, HEK293 stably expressing hTRPML3-YFP, activated with ML-SA1; assay type: cell-based
T3 construct: expressed in transfected cells
Description: To identify inhibitors of TRPML1 and TRPML3, the Spectrum Collection compound library (MS Discoveries; 2000 compounds) and additional 430 bioactive compounds were screened. To this end, fluorometric Ca^2+ influx assays were performed by using the calcium dye Fluo-4/AM (Invitrogen, Thermo Fisher Scientific, Waltham, MA, USA) and a custom-made fluorescence imaging plate reader built into a robotic liquid handling station (Freedom Evo 150, Tecan, Männedorf, Switzerland). All measurements were done in a HEPES buffered solution (HBS), containing 132 mM NaCl, 6 mM KCl, 1 mM MgCl2, 1 mM CaCl2, 5.5 mM D-glucose, 10 mM HEPES, pH 7.4. Screening compounds dissolved in DMSO (10 mM) were prediluted in 150 mM NaCl, 20 mM HEPES, pH 7.4, to a concentration of 200 µM. For primary screens, HEK293 stably expressing plasma membrane-targeted TRPML1 or TRPML3 were trypsinized and resuspended in cell culture medium supplemented with 4 µM Fluo-4/AM. After incubation at 37 °C for 30 min, the cell suspension was briefly centrifuged resuspended in HBS, and dispensed into black pigmented, clear-bottom 384-well microwell plates (Greiner μClear, Frickenhausen, Germany). Plates were placed into the FLIPR and fluorescence signals (excitation 470 nm, emission 515 nm) were recorded with a Zyla 5.5 camera (Andor, Belfast, UK) and the μManager software like previously described. In a first video, compound libraries were successively added to the cells with the Tecan 96-tip multichannel arm to a final concentration of 20 µM to map unspecific effects like autofluorescence or toxicity. In a second step the agonist ML-SA1 was pipetted in each well and fluorescence signals were recorded for 10 min. Analyses were done by calculating fluorescence intensities for each well and background areas with ImageJ (National Institutes of Health, Bethesda, MD, USA). Finally, the background was subtracted and the fluorescence intensities were normalized to initial intensities (F/F0). Concentration response curves were generated by the same procedure but compounds were manually prediluted in 96-well plates containing HBS, now supplemented with 0.1% bovine serum albumin. Here data was fitted to a four-parameter Hill equation to obtain Imin, Imax, IC50), and the Hill coefficient n.

human ERα = molecular target: T4, human ERα (Homo sapiens, UniProt P03372); test: Yeast estrogen receptor assay (YES-assay), Saccharomyces cerevisiae transfected with human ERα, lacZ reporter; assay type: cell-based; conditions: 0.01-100 µM, 48 h
T4 construct: host or cells: Saccharomyces cerevisiae
Description: The yeast estrogen receptor assay (YES-assay) was provided by Dr. J.P. Sumpter (Brunel University, Uxbridge, UK; Routledge & Sumpter, 1996) and was used to determine the relative transactivation activity of the human ERα in response to test substances as previously described. Briefly, Saccharomyces cerevisiae stably transfected with a human ERα construct and an estrogen responsive element fused to the reporter gene lacZ encoding for β-galactosidase were treated with the test substances for 48 h. The β-galactosidase enzymatic activity was measured in a colorimetric assay using the substrate chlorophenol red β-D-galactopyranoside (Roche Diagnostics, Mannheim Germany). Formation of chlorophenol red was measured at 540 nm. For the test, all compounds were diluted in DMSO. 17β-estradiol (10 nM; Sigma, Deisenhofen, Germany) served as positive control and DMSO was used as vehicle control. All compounds, were dose dependently tested in a concentration range of 0.01–100 µM, using technical quadruplicates and biological triplicates.

LC3 = test: Autophagy assay, LC3 immunoblot in human fibroblasts (Fed/Hbss, with bafilomycin A1); assay type: cell-based; conditions: Hbss starvation, with BafA1
Description: 5 × 10^4 wild-type human fibroblasts were seeded in a 12-well plate and treated overnight with DMSO or different TRPML1 inhibitors (EDME, PRU-10, PRU-12). The day after, cells were treated for 3 h in full media (Fed) or HBSS supplemented with 10 mM HEPES (nutrient starved) in presence of DMSO or different TRPML1 inhibitors (EDME, PRU-10, PRU-12). For autophagic flux experiments, cells were co-treated with 100 nM of bafilomycin A1 (Sigma).
Total cell lysates were prepared using TRIS HCl 10 mM pH 8.0 and 0.2% SDS supplemented with protein and phosphatase inhibitors (Sigma). Protein concentration was determined using the Bradford method. After SDS–polyacrylamide gel electrophoresis (PAGE) and immunoblotting, the protein recognized by the specific antibody was visualized by chemiluminescence methods (Luminata Crescendo Western HRP substrate, Millipore) using HRP-conjugated anti-rabbit or anti-mouse secondary antibodies (Cell Signalling). Images were acquired using Li-Cor Odyssey Fc Imaging System and densitometric quantification of unsaturated images was performed using ImageJ software (NIH). Uncropped and unprocessed western blot scans are provided as Fig. S1. The following primary antibodies were used: LC3 (Novus Cat. No. NB100-2220, 1:1000 in 5% milk), TFEB (Cell Signaling Cat. No. 4240, 1:1000 in 5% BSA) and β-actin (Santa Cruz Cat. No. Sc-47778, 1: 1000 in 5% BSA).

hTRPML1∆NC-YFP [3] = molecular target: T1, hTRPML1∆NC-YFP; conditions: 10 µM compound after 10 µM ML-SA1
Description: Single cell Ca^2+ imaging experiments were performed using Fura-2 as previously described. HEK293 cells stably expressing hTRPML1∆NC-YFP, hTRPML2-YFP, hTPPML3-YFP or hTPC2L11A/L12A-RFP (22, 24) were cultured at 37 °C with 5% of CO2 in Dulbecco’s modified Eagle medium (Thermo Fisher), supplemented with 10% fetal bovine serum, 100 U/mL penicillin, and 0.1 mg/mL streptomycin. Cells were plated onto poly-L-lysine (sigma)-coated glass coverslips and grown for 2–3 days. For Ca^2+ imaging experiments cells were loaded for 1 h at room temperature with Fura-2 AM (4.0 µM) and 0.005% (v/v) pluronic acid (both from Thermo Fisher) in HEPES-buffered solution (HBS) comprising 138 mM NaCl, 6 mM KCl, 2 mM MgCl2, 2 mM CaCl2, 10 mM HEPES, and 5.5 mM D-glucose (adjusted to pH 7.4 with NaOH). After loading, cells were washed with HBS and mounted in an imaging chamber. All recordings were performed in HBS. Ca^2+ imaging was performed using a Leica DMi8 live cell microscope. Fura-2 was excited at 340 nm/380 nm. Emitted fluorescence was captured using 515 nm long-pass filter. Compounds were pre diluted in DMSO and stored as 10 mM stock solutions at − 20 °C, not exceeding three months. Working solutions were prepared directly before using by dilution with HBS.

[4] = TRPML2 IC50, Fluo-4, 5 µM ML-SA1, Table S1
[5] = Fluo-4, 5 µM ML-SA1, Table S1, read-out: TRPML3 IC50

T1 sequence (Q9GZU1 whole entry): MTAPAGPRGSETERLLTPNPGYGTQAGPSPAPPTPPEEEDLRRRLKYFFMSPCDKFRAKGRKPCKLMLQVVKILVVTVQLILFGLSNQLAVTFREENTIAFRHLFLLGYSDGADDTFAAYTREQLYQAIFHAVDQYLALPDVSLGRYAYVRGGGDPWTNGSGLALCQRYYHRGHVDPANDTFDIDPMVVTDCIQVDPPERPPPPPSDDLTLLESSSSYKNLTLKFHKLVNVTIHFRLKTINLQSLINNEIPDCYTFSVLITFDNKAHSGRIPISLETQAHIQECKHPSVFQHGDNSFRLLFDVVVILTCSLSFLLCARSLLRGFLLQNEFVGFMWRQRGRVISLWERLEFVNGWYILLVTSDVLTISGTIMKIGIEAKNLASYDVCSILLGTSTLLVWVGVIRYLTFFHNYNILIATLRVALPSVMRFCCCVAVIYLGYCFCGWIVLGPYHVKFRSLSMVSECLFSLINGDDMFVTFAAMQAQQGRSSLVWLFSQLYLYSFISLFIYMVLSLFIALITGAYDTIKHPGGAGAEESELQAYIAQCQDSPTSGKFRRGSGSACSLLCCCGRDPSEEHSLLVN
T4 sequence (P03372 whole entry): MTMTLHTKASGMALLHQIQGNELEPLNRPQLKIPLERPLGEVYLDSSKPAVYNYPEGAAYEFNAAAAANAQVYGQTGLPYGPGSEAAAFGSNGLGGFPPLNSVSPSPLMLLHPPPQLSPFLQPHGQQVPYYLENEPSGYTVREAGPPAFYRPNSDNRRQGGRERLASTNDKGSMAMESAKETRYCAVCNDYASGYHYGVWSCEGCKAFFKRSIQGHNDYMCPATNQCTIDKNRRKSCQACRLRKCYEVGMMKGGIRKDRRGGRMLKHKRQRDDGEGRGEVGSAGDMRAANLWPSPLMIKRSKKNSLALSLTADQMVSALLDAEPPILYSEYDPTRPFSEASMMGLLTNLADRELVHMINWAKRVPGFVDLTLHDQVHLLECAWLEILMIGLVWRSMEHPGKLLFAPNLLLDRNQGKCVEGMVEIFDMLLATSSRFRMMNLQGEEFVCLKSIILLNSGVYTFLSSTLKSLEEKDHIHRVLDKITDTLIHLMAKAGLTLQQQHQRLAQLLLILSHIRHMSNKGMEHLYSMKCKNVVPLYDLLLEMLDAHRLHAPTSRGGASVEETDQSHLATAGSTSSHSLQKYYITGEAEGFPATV
T3 sequence (Q8TDD5 whole entry): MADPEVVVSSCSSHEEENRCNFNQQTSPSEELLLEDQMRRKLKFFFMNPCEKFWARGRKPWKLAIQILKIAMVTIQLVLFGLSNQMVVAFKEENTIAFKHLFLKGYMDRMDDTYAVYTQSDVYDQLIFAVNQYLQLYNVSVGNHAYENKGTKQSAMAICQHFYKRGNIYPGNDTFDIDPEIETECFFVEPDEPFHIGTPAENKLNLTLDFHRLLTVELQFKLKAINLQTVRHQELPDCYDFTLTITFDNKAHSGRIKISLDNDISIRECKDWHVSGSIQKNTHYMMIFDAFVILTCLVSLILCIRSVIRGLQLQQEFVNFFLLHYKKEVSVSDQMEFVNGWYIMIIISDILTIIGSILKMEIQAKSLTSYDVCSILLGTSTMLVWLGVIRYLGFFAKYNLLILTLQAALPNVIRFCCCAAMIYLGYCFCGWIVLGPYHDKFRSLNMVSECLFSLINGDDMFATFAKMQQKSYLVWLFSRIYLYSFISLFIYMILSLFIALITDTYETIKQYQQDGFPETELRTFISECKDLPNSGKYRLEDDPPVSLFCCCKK

| SMILES | IC50 (hTRPML1∆NC-YFP [1]) | TRPML isoform selectivity profile (hTRPML1∆NC-YFP [2]; TRPML1, 2, 3 and TPC2, Fluo-4) | TRPML1:TRPML2 fold selectivity (hTRPML1∆NC-YFP [2]; ratio of Fluo-4 IC50 values) | TRPML1:TRPML3 fold selectivity (hTRPML1∆NC-YFP [2]; ratio of Fluo-4 IC50 values) | IC50 (hTRPML2-YFP; [4]) | IC50 (hTRPML3-YFP; [5]) | effect/efficacy at ERα (human ERα) | TRPML1 versus TRPML3 selectivity (hTRPML1∆NC-YFP [2]; Fluo-4, TRPML1 vs TRPML3, 5 µM ML-SA1) | concentration showing efficacy on autophagy (LC3) (LC3) | effect on autophagy (LC3) at 10 nM or 1 µM (LC3) | activity in concentration-response measurements on TRPML1 (hTRPML1∆NC-YFP [1]; Fluo-4, 5 µM ML-SA1) | IC50 (hTRPML2-YFP; Fluo-4, 5 µM ML-SA1, Table S1, read-out: TRPML2 IC50) | IC50 (hTRPML3-YFP) | efficacy in blocking TRPML1, Fura-2 (hTRPML1∆NC-YFP [3]) |
| --- | --- | --- | --- | --- | --- | --- | --- | --- | --- | --- | --- | --- | --- | --- |
| C[C@]12CC[C@@H]3c4ccc(Oc5ccccc5)cc4CC[C@H]3[C@@H]1CC[C@@H]2O [PRU-8] | 0.72 µM | further improved selectivity profile compared to EDME; also recorded: very good selectivity profile | 21.28 fold | 53.68 fold | 15.3 µM | 38.6 µM | strong effect | – | – | – | – | – | – | – |
| C[C@]12CC[C@@H]3c4ccc(O)cc4CC[C@H]3[C@@H]1CC[C@@H]2O [Estradiol, 17β-estradiol] | 5.3 µM | – | 5.77 fold | – | 30.4 µM | > 50 µM | – | stronger inhibitory effects on TRPML1 than on TRPML3 | 10 µM | no effect | – | – | – | – |
| COc1ccc2c(c1)CC[C@@H]1[C@@H]2CC[C@]2(C)[C@H](O)CC[C@@H]12 [PRU-2] | 13.8 µM and 14 µM | – | 2.67 fold | – | – | – | relatively low efficacy; also recorded: weakest effects | – | – | – | only poor activity | 37 µM | > 50 µM | exception |

From paper PMC8050276, “Estradiol analogs attenuate autophagy, cell migration and invasion by direct and selective inhibition of TRPML1, independent of estrogen receptors” (Scientific Reports, 2021)
